We go through 23 molecules from patent US20070249620A1, “Urea Derivative” (priority 2004, published 2007).

For data set [1], the target named is T1, mouse DGAT1 (Mus musculus, UniProt Q9Z2A7).
T1 construct: made in house; host or cells: insect cells (High Five, Sf9, Sf21, etc.), baculovirus expression system (Invitrogen)
T1 sequence (Q9Z2A7 1-498): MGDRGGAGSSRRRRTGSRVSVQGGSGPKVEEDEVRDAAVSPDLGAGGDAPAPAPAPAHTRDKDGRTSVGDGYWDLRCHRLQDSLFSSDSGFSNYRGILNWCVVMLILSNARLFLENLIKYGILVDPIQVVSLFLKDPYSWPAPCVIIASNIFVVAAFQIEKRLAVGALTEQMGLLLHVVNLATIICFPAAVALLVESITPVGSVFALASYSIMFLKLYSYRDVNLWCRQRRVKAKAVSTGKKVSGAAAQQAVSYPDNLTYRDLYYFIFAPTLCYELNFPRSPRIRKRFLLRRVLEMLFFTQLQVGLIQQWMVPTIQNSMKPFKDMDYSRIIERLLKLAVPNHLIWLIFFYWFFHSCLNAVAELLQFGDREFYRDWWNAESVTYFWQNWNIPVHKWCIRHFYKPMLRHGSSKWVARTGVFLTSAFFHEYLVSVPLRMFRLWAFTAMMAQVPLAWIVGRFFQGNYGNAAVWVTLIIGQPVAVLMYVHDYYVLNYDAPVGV
Put plainly: DGAT1 inhibitory effect test (microsome fraction, [14C]-oleoyl-CoA, triglyceride radioactivity by TLC). To be noted: 0.5 h; concentration of the test compound 0.1 μg/ml; mouse DGAT1 microsomes, 23° C., 30 minutes; read-out: Inhibitory ratio. Format: biochemical. The method in brief: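 Inhibition was scored from radiolabelled triglyceride separated by TLC, relative to vehicle and net of a 0-min background. The reaction ran for 30 min at room temperature (23 °C) in Tris-HCl pH 8.0 with MgCl2, BSA and Triton X-100. Substrates were 30 μM [14C]-oleoyl-CoA and 0.5 mM dioleoylglycerol, with mouse DGAT1 microsomes from baculovirus-infected insect cells as enzyme.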

Turning to `COc1ccc(C)cc1NC(=O)Nc1ccc(N2CCN(C(=O)Nc3ccc(NC(C)=O)cc3C(F)(F)F)CC2)cc1` [Example 173, 4-{4-[3-(2-methoxy-5-methyl-phenyl)-ureido]-phenyl}-piperazine-1-carboxylic acid (4-acetylamino-2-trifluoromethyl-phenyl)-amide], the melting point – broadly, the temperature of the solid-liquid transition – fell in the range of 152 to 154 °C. In data set [1], the inhibition at 0.1 µg/mL is ≥ 50%.

`COc1ccc(C)cc1NC(=O)Nc1ccc(N2CCN(C(=O)Nc3c(C)cc(Cl)cc3C)CC2)cc1` [Example 174, 4-{4-[3-(2-methoxy-5-methyl-phenyl)-ureido]-phenyl}-piperazine-1-carboxylic acid (4-chloro-2,6-dimethyl-phenyl)-amide] had a melting point of 238 to 240 °C. Also, the inhibition at 0.1 µg/mL in data set [1] was ≥ 50%.

Molecule `COc1ccc(NC(=O)N2CCN(c3ccc(NC(=O)Nc4cc(C)ccc4OC)cc3)CC2)c(C(F)(F)F)c1` [Example 175, 4-{4-[3-(2-methoxy-5-methyl-phenyl)-ureido]-phenyl}-piperazine-1-carboxylic acid (4-methoxy-2-trifluoromethyl-phenyl)-amide] returned a melting point of 245 to 247 °C. The inhibition at 0.1 µg/mL in data set [1] is ≥ 50%.

`COc1ccc(C)cc1NC(=O)Nc1ccc(N2CCN(C(=O)Nc3c(C)cccc3Br)CC2)cc1` [Example 177, 4-{4-[3-(2-methoxy-5-methyl-phenyl)-ureido]-phenyl}-piperazine-1-carboxylic acid (2-bromo-6-methyl-phenyl)-amide] yielded a melting point of 221 to 222 °C. Further, the inhibition at 0.1 µg/mL in data set [1] is ≥ 50%.

As to `COc1ccc(C)cc1NC(=O)Nc1ccc(N2CCN(C(=O)Nc3ccc(C(C)C)cc3C(F)(F)F)CC2)cc1` [Example 178, 4-{4-[3-(2-methoxy-5-methyl-phenyl)-ureido]-phenyl}-piperazine-1-carboxylic acid (4-isopropyl-2-trifluoromethyl-phenyl)-amide], the melting point fell in the range of 134 to 135 °C. For the same molecule, in data set [1], the inhibition at 0.1 µg/mL is ≥ 50%.

In turn, `COc1ccc(C)cc1NC(=O)Nc1ccc(N2CCN(C(=O)Nc3c(C)cccc3C(=O)O)CC2)cc1` [Example 179, 2-[(4-{4-[3-(2-methoxy-5-methyl-phenyl)-ureido]-phenyl}-piperazine-1-carbonyl)-amino]-3-methyl-benzoic acid] showed a melting point of 159 to 160 °C. For the same molecule, in data set [1], the inhibition at 0.1 µg/mL is ≥ 50%.

With `COc1ccc(C)cc1NC(=O)Nc1ccc(N2CCN(C(=O)Nc3ccc(C(=O)O)cc3C)CC2)cc1` [Example 180, 4-[(4-{4-[3-(2-methoxy-5-methyl-phenyl)-ureido]-phenyl}-piperazine-1-carbonyl)-amino]-3-methyl-benzoic acid], the melting point was 178 to 180 °C. The inhibition at 0.1 µg/mL in data set [1] is ≥ 50%.

In turn, `COc1ccc(C)cc1NC(=O)Nc1ccc(N2CCN(C(=O)Nc3ccc(C(=O)O)cc3Cl)CC2)cc1` [Example 181, 3-chloro-4-[(4-{4-[3-(2-methoxy-5-methyl-phenyl)-ureido]-phenyl}-piperazine-1-carbonyl)-amino]-benzoic acid] displayed a melting point of 209 to 221 °C. The inhibition at 0.1 µg/mL in data set [1] is ≥ 50%.

`CCOc1ccccc1NC(=O)Nc1ccc(N2CCN(C(=O)Nc3c(C)cccc3OC)CC2)cc1` [Example 183, 4-{4-[3-(2-ethoxy-phenyl)-ureido]-phenyl}-piperazine-1-carboxylic acid (2-methoxy-6-methyl-phenyl)-amide]: the melting point lay within 169 to 171 °C. Besides, the inhibition at 0.1 µg/mL in data set [1] was ≥ 50%.

The molecule `CCOc1ccc(C)cc1NC(=O)Nc1ccc(N2CCN(C(=O)Nc3c(C)cccc3OC)CC2)cc1` [Example 184, 4-{4-[3-(2-ethoxy-5-methyl-phenyl)-ureido]-phenyl}-piperazine-1-carboxylic acid (2-methoxy-6-methyl-phenyl)-amide] showed a melting point of 142 to 144 °C. Moreover, the inhibition at 0.1 µg/mL in data set [1] is ≥ 50%.

For the molecule `COc1ccc(C)cc1NC(=O)Nc1ccc(N2CCN(C(=O)Nc3c(C)cccc3CO)CC2)cc1` [Example 185, 4-{4-[3-(2-methoxy-5-methyl-phenyl)-ureido]-phenyl}-piperazine-1-carboxylic acid (2-hydroxymethyl-6-methyl-phenyl)-amide], the melting point lay within 192 to 194 °C. The inhibition at 0.1 µg/mL in data set [1] is ≥ 50%.

As to `COc1ccc(C)cc1NC(=O)Nc1ccc(N2CCN(C(=O)Nc3c(C)cccc3OC)CC2)nc1` [Example 186, 4-{5-[3-(2-methoxy-5-methyl-phenyl)-ureido]-pyridin-2-yl}-piperazine-1-carboxylic acid (2-methoxy-6-methyl-phenyl)-amide], the melting point was in the range of 198 to 200 °C. Further, in data set [1], the inhibition at 0.1 µg/mL was ≥ 50%.

`CCOc1ccccc1NC(=O)Nc1ccc(N2CCN(C(=O)Nc3c(C)cccc3OC)CC2)nc1` [Example 187, 4-{5-[3-(2-ethoxy-phenyl)-ureido]-pyridin-2-yl}-piperazine-1-carboxylic acid (2-methoxy-6-methyl-phenyl)-amide]: the melting point lay within 129 to 130 °C. Further, in data set [1], the inhibition at 0.1 µg/mL was ≥ 50%.

For the molecule `COc1ccc(C)cc1NC(=O)Nc1ccc(N2CCN(C(=O)Nc3ccc(NC(C)=O)cc3C(F)(F)F)CC2)nc1` [Example 188, 4-{5-[3-(2-methoxy-5-methyl-phenyl)-ureido]-pyridin-2-yl}-piperazine-1-carboxylic acid (4-acetylamino-2-trifluoromethyl-phenyl)-amide], the melting point lay within 175 to 177 °C. In addition, the inhibition at 0.1 µg/mL in data set [1] was ≥ 50%.

`COc1ccc(C)cc1NC(=O)Nc1ccc(N2CCN(C(=O)Cc3c(F)cccc3F)CC2)cc1` [Example 192, 1-(4-{4-[2-(2,6-difluoro-phenyl)-acetyl]-piperazin-1-yl}phenyl)-3-(2-methoxy-5-methyl-phenyl)-urea] yielded a melting point of 213 to 215 °C. Also, the inhibition at 0.1 µg/mL in data set [1] was ≥ 50%.

For the molecule `COc1ccc(C)cc1NC(=O)Nc1ccc(N2CCN(C(=O)Oc3c(C)cccc3Cl)CC2)cc1` [Example 197, 4-{4-[3-(2-methoxy-5-methyl-phenyl)-ureido]-phenyl}-piperazine-1-carboxylic acid 2-chloro-6-methyl-phenyl ester], the melting point is 146 to 148 °C. The inhibition at 0.1 µg/mL in data set [1] was ≥ 50%.

The molecule `COc1ccc(C)cc1NC(=O)Nc1ccc(N2CCN(C(=O)Nc3c(C)cccc3Cl)C(C)C2)cc1` (stereo not shown) [Example 198, 4-{4-[3-(2-methoxy-5-methyl-phenyl)-ureido]-phenyl}-2-methyl-piperazine-1-carboxylic acid (2-chloro-6-methyl-phenyl)-amide] yielded a melting point of 161 to 163 °C. Further, in data set [1], the inhibition at 0.1 µg/mL was ≥ 50%.

In turn, `COc1ccc(C)cc1NC(=O)Nc1ccc(N2CCN(C(=O)Nc3c(C)cccc3C)C(C)C2)cc1` (stereo not shown) [Example 199, 4-{4-[3-(2-methoxy-5-methyl-phenyl)-ureido]-phenyl}-2-methyl-piperazine-1-carboxylic acid (2,6-dimethyl-phenyl)-amide] registered a melting point of 204 to 206 °C. In addition, in data set [1], the inhibition at 0.1 µg/mL is ≥ 50%.

Consider `COc1ccc(C)cc1NC(=O)Nc1ccc(N2CCCN(C(=O)Nc3c(C)cccc3Cl)CC2)cc1` [Example 200, 4-{4-[3-(2-methoxy-5-methyl-phenyl)-ureido]-phenyl}-perhydro-1,4-diazepine-1-carboxylic acid (2-chloro-6-methyl-phenyl)-amide], for which the melting point was > 240 °C (dec.). Besides, the inhibition at 0.1 µg/mL in data set [1] is ≥ 50%.

In the case of `COc1ccc(C)cc1NC(=O)Nc1ccc(N2CCCN(C(=O)Nc3c(C)cccc3C)CC2)cc1` [Example 201, 4-{4-[3-(2-methoxy-5-methyl-phenyl)-ureido]-phenyl}-perhydro-1,4-diazepine-1-carboxylic acid (2,6-dimethyl-phenyl)-amide], the melting point is > 240 °C (dec.). The inhibition at 0.1 µg/mL in data set [1] is ≥ 50%.

`CCCCCCNC(=O)Nc1ccc(N2CCN(C(=O)Nc3c(C)cccc3Cl)CC2)cc1` [Example 206, 4-[4-(3-hexyl-ureido)-phenyl]-piperazine-1-carboxylic acid (2-chloro-6-methyl-phenyl)-amide] registered a melting point of 206 to 210 °C. For the same molecule, the inhibition at 0.1 µg/mL in data set [1] was ≥ 50%.

For the molecule `Cc1cccc(Cl)c1NC(=O)N1CCN(c2ccc(NC(=O)NC3CCCCC3)cc2)CC1` [Example 207, 4-[4-(3-cyclohexyl-ureido)-phenyl]-piperazine-1-carboxylic acid (2-chloro-6-methyl-phenyl)-amide], the melting point is > 260 °C (dec.). In data set [1], the inhibition at 0.1 µg/mL is ≥ 50%.

`COc1ccc(C)cc1NC(=O)Nc1ccc(N2CCN(C(=O)Nc3ccc(OCCO)cc3C)CC2)cc1` [Example 208, 4-{4-[3-(2-methoxy-5-methyl-phenyl)-ureido]-phenyl}-piperazine-1-carboxylic acid [4-(2-hydroxy-ethoxy)-2-methyl-phenyl]-amide]: the melting point lay within 174 to 176 °C. Further, the inhibition at 0.1 µg/mL in data set [1] is ≥ 50%.
